The first series addresses T1, Dual specificity mitogen-activated protein kinase kinase 5 (Homo sapiens, UniProt Q13163).
T1 sequence (Q13163 whole entry): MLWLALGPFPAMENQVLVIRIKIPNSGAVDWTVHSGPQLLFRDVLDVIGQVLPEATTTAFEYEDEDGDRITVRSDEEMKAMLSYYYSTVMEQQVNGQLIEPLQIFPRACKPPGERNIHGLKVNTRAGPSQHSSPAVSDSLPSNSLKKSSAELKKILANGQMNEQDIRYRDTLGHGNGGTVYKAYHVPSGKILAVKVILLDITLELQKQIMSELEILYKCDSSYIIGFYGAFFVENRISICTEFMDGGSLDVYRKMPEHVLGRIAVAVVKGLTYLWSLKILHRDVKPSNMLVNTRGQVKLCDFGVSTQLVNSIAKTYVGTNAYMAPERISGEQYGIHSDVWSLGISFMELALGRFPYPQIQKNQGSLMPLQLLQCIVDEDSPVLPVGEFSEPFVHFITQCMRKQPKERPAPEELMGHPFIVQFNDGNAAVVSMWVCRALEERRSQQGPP
Briefly: Activation of MEK5 in EGF-stimulated human MDA-MB-231 cells assessed as increase in pERK5 levels preincubated for 30 mins followed by EGF stimulation measured after 15 mins by Western blot analysis relative to control. The class given is cell-based. The settings on record: mda-mb-231, 0.25 h. Also noted: concentration or dose not given beside the values. On the technique in general: A western blot detects proteins with antibodies after separation by electrophoresis.
Take `O=C(c1ccc(F)c(F)c1Nc1ccc(I)cc1F)N1CCNCC1`: the Activity came to 20%. The same measure, in the same setting: the result for `CN(c1ccc(I)cc1F)c1c(C(N)=O)ccc(F)c1F` reads 20%; that for `CCN(CC)C(=O)c1ccc(F)c(F)c1Nc1ccc(I)cc1F`, 20%; that for `O=C(O)c1ccc(F)c(F)c1Nc1ccccc1F`, 20%. Consider `O=C(O)c1ccc(F)c(F)c1Nc1ccccc1`, for which the Activity is on record as 20%.

In another series the test system is MDA-MB-231. Briefly: Antitumor activity against human MDA-MB-231 cells xenografted in SCID/Beige mouse assessed as tumor volume at 25 mg/kg, qd measured on day 30 (reference value: 49.48 +/- 3.44 mm3).
Conditions: not given
The series is classed as functional.
`NC(=O)c1ccc(F)c(F)c1Nc1ccc(I)cc1F`: the Activity is 29.1 mm3.

Another series has as its target Dual specificity mitogen-activated protein kinase kinase; MEK1/2 (Homo sapiens, UniProt P36507+Q02750). Briefly: Activation of MEK1/2 in EGF-stimulated human MDA-MB-231 cells assessed as increase in pERK1/2 levels preincubated for 30 mins followed by EGF stimulation measured after 15 mins by Western blot analysis relative to control. The class given is cell-based. The settings on record: mda-mb-231, 0.25 h.
Consider `CN1CCN(C(=O)c2ccc(F)c(F)c2N(C)c2ccc(I)cc2F)CC1`, for which the Activity is listed as 20%. For `NC(=O)c1ccccc1Nc1ccccc1F`, the Activity is given as 20%.

Turning to `CN1CCN(C(=O)c2ccc(F)c(F)c2Nc2ccccc2)CC1`, the Activity is on record as 20%.

(Values after ChEMBL document CHEMBL4118214, “Structure activity relationships of anthranilic acid-based compounds on cellular and in vivo mitogen activated protein kinase-5 signaling pathways” (Bioorg Med Chem Lett, 2018).)
